The target of experiment [1] is T1, recombinant human ALK5 (TGF-βR1) protein (Homo sapiens, UniProt P36897).
T1 construct: purchased Life Technologies PR9075A
T1 sequence (P36897 34-503): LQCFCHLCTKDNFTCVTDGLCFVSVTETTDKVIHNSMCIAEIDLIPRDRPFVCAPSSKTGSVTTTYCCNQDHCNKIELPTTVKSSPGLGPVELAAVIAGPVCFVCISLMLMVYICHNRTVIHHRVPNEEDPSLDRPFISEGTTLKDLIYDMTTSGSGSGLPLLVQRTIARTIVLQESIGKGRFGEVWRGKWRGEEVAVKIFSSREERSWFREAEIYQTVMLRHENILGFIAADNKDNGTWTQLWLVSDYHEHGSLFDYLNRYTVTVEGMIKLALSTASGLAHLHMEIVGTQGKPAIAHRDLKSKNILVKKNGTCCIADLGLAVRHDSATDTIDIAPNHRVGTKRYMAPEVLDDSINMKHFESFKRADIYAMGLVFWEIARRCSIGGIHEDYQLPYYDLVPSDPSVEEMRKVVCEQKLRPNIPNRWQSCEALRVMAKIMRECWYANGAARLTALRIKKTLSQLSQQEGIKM
Nature of the experiment: Biochemical ALK5 (TGF-βR1) assay to measure pKi (LANCE Ultra ULight kinase assay). Conditions: apparent pKi from pIC50 by Cheng-Prusoff, read-out: ALK5 pKi (converted). The procedure: The assays were performed in a 384-well plate (24 columns×16 wells/rows). An Echo® 550 Liquid Handler (Labcyte) was used to prepare various intermediate concentrations of compounds of the present disclosure in 100% DMSO. From the intermediate concentrations, a range of concentrations (from 10 μM to 25 pM corresponding to volumes up to 105 nL) were prepared and ejected into a final assay plate to be used to create individual dose response curves for each of the subject compounds. To a separate column within the assay plate, 105 nL of DMSO in each well was used to establish a maximum assay signal.
With a multidrop dispenser, 8 μL of enzyme mixture (1.25× final) was added to each well. […] The plate was then sealed with an adhesive seal and allowed to equilibrate for 60 minutes at room temperature.
Next, 2 μL of 125 μM ATP (5× final, 125 μM ATP prepared in assay buffer with 2 mM DTT) was added to the incubated mixtures, covered with a MicroClime® Environmental Lid (Product No. LLS-0310, Labcyte) and immediately transferred to 37° C. The reactions were allowed to proceed at 37° C. for 60 minutes before terminating with the addition of 10 μL of detection antibody (LANCE® (lanthanide chelate excite) Ultra Europium-anti-phospo-DNA Topoisomerase 2-alpha (Thr1342)) in detection mixture (12 mM EDTA, 4 nM detection antibody prepared in detection buffer (50 mM Tris-HCl, 150 mM NaCl, 0.5% BSA (Fraction V), pH 7.0)) at room temperature. The plate was then read on a Perkin Elmer EnVision Plate Reader using europium specific reader settings with excitation and emission wavelengths set to 320 or 340 nm and 665 nm, respectively.
For dose-response analyses, percent inhibition versus compound concentrations were plotted, and pIC50 values were determined from a 4-parameter robust fit model with GraphPad Prism V5 Software (GraphPad Software, Inc., La Jolla, Calif.). This model obtains pIC50 values by fitting the sigmoidal dose-response (variable slope) equation to the data. Results were expressed as pIC50 (negative logarithm of IC50) and subsequently converted to pKi (negative logarithm of dissociate constant, K) using the Cheng-Prusoff equation. The higher the value of pKi (lower value of Ki), the greater the inhibition of ALK5 activity.

The subject of experiment [2] is TGF-β-stimulated SMAD3 phosphorylation in BEAS-2B cells. Description: Cellular ALK5 potency assay, inhibition of TGF-β stimulated pSMAD3 formation in BEAS-2B cells. In kind it is cell-based. The note with it: Homo sapiens; inhibition of TGF-β stimulated pSMAD3 formation, BEAS-2B cells; read-out: BEAS2B pIC50 (converted). On the procedure: The potency of compounds of the present disclosure for inhibition of TGF-β-stimulated SMAD3 phosphorylation was measured in BEAS-2B cells, a human lung epithelial cell line. TGF-β signals through activin receptor-like kinase 5 (ALK5) immediately prior to SMAD3 phosphorylation.
BEAS-2B cells were grown using 50% DMEM (Life Technologies) and 50% F-12 (Life Technologies) media, supplemented with 10% Fetal Bovine Serum (ATCC), 25 mM HEPES (Life Technologies), and 1× Pen-Strep (Life Technologies). Cells were cultured in a humidified incubator set at 37° C., 5% CO2, and trypsonized using 0.25% Trypsin with 0.5% polyvinylpyrrolidone (PVP).
For the assay, BEAS-2B cells were seeded at 7,500 cells/well (25 μL/well) in a 384-well plate and cultured overnight. Before dosing, growth media was aspirated and the wells were rinsed with HBSS Buffer (HBSS with Calcium and Magnesium, Life Technologies) supplemented with 25 mM HEPES (Life Technologies) and 1% Bovine Serum Albumin (Roche). Compounds were serially diluted in DMSO, then further diluted with supplemented HBSS Buffer (50 μL/well) to create a compound plate 3× of the final assay concentration, at 0.3% DMSO. The diluted compounds were then added to the cells (8 μL/well) and incubated at 37° C., 5% CO2 for 1 hour. After the compound incubation, TGF-β (R&D Systems) reconstituted in supplemented HBSS Buffer was added to the cells ([…], final concentration 10 ng/mL) and incubated for a further 30 minutes, after which the cells were immediately lysed with AlphaLISA lysis buffer (PerkinElmer). AlphaLISA Acceptor and Detector beads (PerkinElmer) were added 2 hours apart, then incubated overnight to be read the next day. The potency of the compound was determined through analysis of dose-dependent quantified changes in pSMAD3 signal from baseline (non-compound treated TGF-β stimulated cells). Data are expressed as pIC50 (negative decadic logarithm IC50) values.

A value given as a limit tells only on which side of the number the result lay.

With `Cc1nc(-c2nc3ccccn3c2-c2ccc3ncc(NCCN4CCN(C(C)C)CC4)cc3c2)ccc1F` [Compound 620, 6-[2-(5-fluoro-6-methyl-2-pyridyl)imidazo[1,2-a]pyridin-3-yl]-N-[2-(4-isopropylpiperazin-1-yl)ethyl]quinolin-3-amine], in experiment [1], the Ki is 0.0398 to 0.316 nM. For the same compound, the IC50 in experiment [2] is 25.1 to 158 nM.

In the case of `Cc1cccc(-c2n[nH]cc2-c2ccc3nccc(C(=O)OCCN4CCOCC4)c3n2)n1` [Compound 827, 2-morpholinoethyl 6-[3-(6-methyl-2-pyridyl)-1H-pyrazol-4-yl]-1,5-naphthyridine-4-carboxylate], in experiment [1], the Ki was 0.398 to 3.16 nM. The IC50 in experiment [2] was 25.1 to 158 nM.

For the compound `Cc1cccc(-c2[nH]cnc2-c2ccc3ncc(NCCN4CCNC(C(=O)O)C4)cc3c2)n1` (stereo not drawn) [Compound 712, 4-[2-[[6-[5-(6-methyl-2-pyridyl)-1H-imidazol-4-yl]-3-quinolyl]amino]ethyl]piperazine-2-carboxylic acid], the Ki in experiment [1] was 0.0398 to 0.316 nM. Besides, in experiment [2], the IC50 was 200 to 1260 nM.

In the case of `Cc1cccc(-c2n[nH]cc2-c2ccc3ncc(N4CCOCC4)cc3n2)n1` [Compound 78, 4-[6-[3-(6-methyl-2-pyridyl)-1H-pyrazol-4-yl]-1,5-naphthyridin-3-yl]morpholine], the Ki in experiment [1] is less than 0.0316 nM. Besides, the IC50 in experiment [2] was less than 20 nM.

`Cc1cccc(-c2n[nH]cc2-c2ccc3ncc(C4=CCC(NCc5ccccc5)CC4)cc3n2)n1` (stereo not drawn) [Compound 502, N-benzyl-4-[6-[3-(6-methyl-2-pyridyl)-1H-pyrazol-4-yl]-1,5-naphthyridin-3-yl]cyclohex-3-en-1-amine]: the Ki in experiment [1] is less than 0.0316 nM. In experiment [2], the IC50 was 25.1 to 158 nM.

Turning to `CCOC(=O)CCc1cnc2ccc(-c3c[nH]nc3-c3cccc(C)n3)nc2c1` [Compound 499, ethyl 3-[6-[3-(6-methyl-2-pyridyl)-1H-pyrazol-4-yl]-1,5-naphthyridin-3-yl]propanoate], in experiment [1], the Ki is 0.0398 to 0.316 nM. Also, the IC50 in experiment [2] was 25.1 to 158 nM.

For the compound `Cc1cccc(-c2[nH]cnc2-c2ccc3ncc(-c4cncc(C(=O)O[C@@H]5CCN(C)C5)c4)cc3c2)n1` [Compound 396, [(3R)-1-methylpyrrolidin-3-yl] 5-[6-[5-(6-methyl-2-pyridyl)-1H-imidazol-4-yl]-3-quinolyl]pyridine-3-carboxylate], the Ki in experiment [1] is 0.0398 to 0.316 nM. In experiment [2], the IC50 is 25.1 to 158 nM.

For `Cc1cccc(-c2n[nH]cc2-c2ccc3nccc(NC(=O)CN4CCN(C(C)C)CC4)c3n2)n1` [Compound 839, 2-(4-isopropylpiperazin-1-yl)-N-[6-[3-(6-methyl-2-pyridyl)-1H-pyrazol-4-yl]-1,5-naphthyridin-4-yl]acetamide], the Ki in experiment [1] was 0.398 to 3.16 nM. For the same compound, the IC50 in experiment [2] is 25.1 to 158 nM.

As to `Cc1nc(-c2nc3ccccn3c2-c2ccc3ncc(N4CCC(N(C)C)C4)cc3n2)ccc1F` (racemic) [Compound 347, rac-(3S)-1-[6-[2-(5-fluoro-6-methyl-2-pyridyl)imidazo[1,2-a]pyridin-3-yl]-1,5-naphthyridin-3-yl]-N,N-dimethyl-pyrrolidin-3-amine], in experiment [1], the Ki was 0.0398 to 0.316 nM. The IC50 in experiment [2] was 25.1 to 158 nM.

Turning to `CNCCn1cc(-c2cnc3ccc(-c4c[nH]nc4-c4cccc(C(F)F)n4)nc3c2)cn1` [Compound 481, 2-[4-[6-[3-[6-(difluoromethyl)-2-pyridyl]-1H-pyrazol-4-yl]-1,5-naphthyridin-3-yl]pyrazol-1-yl]-N-methyl-ethanamine], the Ki in experiment [1] is less than 0.0316 nM. Further, in experiment [2], the IC50 is 25.1 to 158 nM.

Turning to `Cc1nc(-c2[nH]cnc2-c2ccc3ncc(NCCN4CCCC4(C)C)cc3n2)ccc1F` [Compound 603, N-[2-(2,2-dimethylpyrrolidin-1-yl)ethyl]-6-[5-(5-fluoro-6-methyl-2-pyridyl)-1H-imidazol-4-yl]-1,5-naphthyridin-3-amine], the Ki in experiment [1] is less than 0.0316 nM. Further, the IC50 in experiment [2] was 25.1 to 158 nM.

For the compound `CNCCn1cc(-c2cnc3ccc(-c4c[nH]nc4-c4cccc(C(F)(F)F)n4)nc3c2)cn1` [Compound 237, N-methyl-2-(4-(6-(3-(6-(trifluoromethyl)pyridin-2-yl)-1H-pyrazol-4-yl)-1,5-naphthyridin-3-yl)-1H-pyrazol-1-yl)ethan-1-amine], in experiment [1], the Ki was less than 0.0316 nM. Besides, the IC50 in experiment [2] was 25.1 to 158 nM.

Consider `Cc1nc(-c2n[nH]cc2-c2ccc3ncc(-c4cnn([C@H]5CC[C@@H](N)C5)c4)cc3n2)ccc1F` (racemic) [Compound 96, rac-(1R,3S)-3-[4-[6-[3-(5-fluoro-6-methyl-2-pyridyl)-1H-pyrazol-4-yl]-1,5-naphthyridin-3-yl]pyrazol-1-yl]cyclopentanamine], for which the Ki in experiment [1] is less than 0.0316 nM. The IC50 in experiment [2] is 25.1 to 158 nM.

For `Cc1cccc(-c2[nH]cnc2-c2ccc3ncc(-c4cnc(C(=O)OC5CNC5)nc4)cc3c2)n1` [Compound 1112, azetidin-3-yl 5-[6-[5-(6-methyl-2-pyridyl)-1H-imidazol-4-yl]-3-quinolyl]pyrimidine-2-carboxylate], the Ki in experiment [1] is 0.398 to 3.16 nM. Moreover, in experiment [2], the IC50 is 1580 to 10000 nM.

Consider `Cc1nc(-c2n[nH]cc2-c2ccc3ncc(-c4[nH]nc5c4CNCC5)cc3n2)ccc1F` [Compound 173, 2-[3-(5-fluoro-6-methyl-2-pyridyl)-1H-pyrazol-4-yl]-7-(4,5,6,7-tetrahydro-2H-pyrazolo[4,3-c]pyridin-3-yl)-1,5-naphthyridine], for which the Ki in experiment [1] is 0.0398 to 0.316 nM. Also, the IC50 in experiment [2] was 200 to 1260 nM.

As for `Cc1nc(-c2n[nH]cc2-c2ccc3ncc(-c4cnn(C5CCC(N)CC5)c4)cc3n2)ccc1F` (stereo not drawn) [Compound 459, 4-[4-[6-[3-(5-fluoro-6-methyl-2-pyridyl)-1H-pyrazol-4-yl]-1,5-naphthyridin-3-yl]pyrazol-1-yl]cyclohexanamine], the IC50 in experiment [2] was 25.1 to 158 nM.

With `CNCCn1cc(-c2cnc3ccc(-c4c[nH]nc4-c4ccc(F)c(C)n4)nc3c2C)cn1` [Compound 870, 2-[4-[6-[3-(5-fluoro-6-methyl-2-pyridyl)-1H-pyrazol-4-yl]-4-methyl-1,5-naphthyridin-3-yl]pyrazol-1-yl]-N-methyl-ethanamine], in experiment [2], the IC50 was 25.1 to 158 nM.

Regarding `Cc1nc(-c2n[nH]cc2-c2ccc3ncc(-c4cnn(C5CC(N)C5)c4)cc3n2)ccc1F` (stereo not drawn) [Compound 647, 3-[4-[6-[3-(5-fluoro-6-methyl-2-pyridyl)-1H-pyrazol-4-yl]-1,5-naphthyridin-3-yl]pyrazol-1-yl]cyclobutanamine], the IC50 in experiment [2] was 25.1 to 158 nM.

(Values after patent US11590116B2 (THERAVANCE BIOPHARMA R&D IP, LLC, priority 2019, dated 2023).)
